Measurements: ChEMBL document CHEMBL1201862, “PubChem BioAssay data set” (2004)
Values joined by “and” are separate entries in the source; they are usually repeats but may differ in a detail not shown here. Identical values can stand only once.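 Dose response: 5 concentrations. Exposure: 48 h. Format: 96-well plates. Endpoint: linear interpolation; highest concentration if not reached. The concentration for 50% growth inhibition is given as GI50.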 Active and inactive are the calls of the source. No stated cut-off is given here; in the data, active = GI50 up to about 1.1 µM and inactive = higher.

Legend:
Assay in all cases: growth of human tumour cells (NCI), 48 h
COLO 205 = test system: COLO 205
NCI-H460 = test system: NCI-H460
EKVX = test system: EKVX
HCT-15 = test system: HCT-15
OVCAR-8 = test system: OVCAR-8
MCF7 = test system: MCF7
M14 = test system: M14
MDA-MB-435 = test system: MDA-MB-435
HCT-116 = test system: HCT-116
Malme-3M = test system: Malme-3M
UACC-62 = test system: UACC-62
SK-MEL-2 = test system: SK-MEL-2
ACHN = test system: ACHN
HL-60 = test system: HL-60
NCI-H23 = test system: NCI-H23
KM12 = test system: KM12
SK-OV-3 = test system: SK-OV-3
LOX IMVI = test system: LOX IMVI
SNB-19 = test system: SNB-19
HOP-92 = test system: HOP-92

Row | Compound | GI50 (COLO 205) | GI50 (NCI-H460) | GI50 (EKVX) | GI50 (HCT-15) | GI50 (OVCAR-8) | GI50 (MCF7) | GI50 (M14) | GI50 (MDA-MB-435) | GI50 (HCT-116) | GI50 (Malme-3M) | GI50 (UACC-62) | GI50 (SK-MEL-2) | GI50 (ACHN) | GI50 (HL-60) | GI50 (NCI-H23) | GI50 (KM12) | GI50 (SK-OV-3) | GI50 (LOX IMVI) | GI50 (SNB-19) | GI50 (HOP-92)
1 | CC(NC(=O)c1ccccc1)(C(=O)O)C(=O)O | > 100 µM (inactive) | > 100 µM (inactive) | > 100 µM (inactive) | > 100 µM | > 100 µM (inactive) | > 100 µM (inactive) | > 100 µM (inactive) | > 100 µM (inactive) | > 100 µM (inactive) | > 100 µM (inactive) | > 100 µM (inactive) | > 100 µM (inactive) | > 100 µM (inactive) | > 100 µM (inactive) | > 100 µM (inactive) | > 100 µM (inactive) | > 100 µM (inactive) | > 100 µM (inactive) | > 100 µM (inactive) | 83 µM (inactive)
2 | COc1ccc(C2c3cc4c(cc3OC(N3CCOCC3)C2C)OCO4)c(OC)c1 (configuration not stated) | 9.33 µM (inactive) | 5.12 µM (inactive) | 13.9 µM (inactive) | 4.34 µM | 8 µM (inactive) | 4.59 µM (inactive) | 3.96 µM (inactive) | 2.14 µM (inactive) | 3.77 µM (inactive) | 5.11 µM (inactive) | 5.56 µM (inactive) | 4.95 µM (inactive) | 9.48 µM (inactive) | 2.7 µM (inactive) | 11.9 µM (inactive) | 4.94 µM (inactive) | 4.43 µM (inactive) | 4.27 µM (inactive) | 4.36 µM (inactive) | 3.32 µM (inactive)
3 | N=C(N)N/N=C/c1c(-c2cc([N+](=O)[O-])c(Cl)cc2Cl)nc2sccn12 | – | 1.86 µM (inactive) and 1.73 µM (inactive) | 1.72 µM (inactive) and 1.77 µM (inactive) | 2.47 µM and 1.26 µM | 1.98 µM (inactive) and 2 µM (inactive) | 1.26 µM (inactive) | 1.66 µM (inactive) | 332 nM (active) and 1.7 µM (inactive) | – | 1.67 µM (inactive) and 239 nM (active) | 1.56 µM (inactive) and 1.94 µM (inactive) | 1.91 µM (inactive) and 1 µM (active) | 527 nM (active) and 1.67 µM (inactive) | 2.27 µM (inactive) and 1.53 µM (inactive) | 1.56 µM (inactive) and 1.36 µM (inactive) | 168 nM (active) and 1.19 µM (inactive) | 1.83 µM (inactive) | 130 nM (active) and 1.18 µM (inactive) | – | 1.8 µM (inactive) and 1.13 µM (inactive)
4 | CCCCCCCCCCCCCC(=O)CBr | 14.9 µM (inactive) | 18 µM (inactive) | 18.7 µM (inactive) | 11.1 µM | 14 µM (inactive) | 13.4 µM (inactive) | 10.8 µM (inactive) | 16.7 µM (inactive) | 12.3 µM (inactive) | 9.06 µM (inactive) | 9.79 µM (inactive) | 11.5 µM (inactive) | 15 µM (inactive) | 1.03 µM (active) | 9.77 µM (inactive) | 12.1 µM (inactive) | 24 µM (inactive) | 3.83 µM (inactive) | 16.9 µM (inactive) | 2.36 µM (inactive)
5 | CC1C(O)Oc2cc3c(cc2C1c1ccccc1O)OCO3 (configuration not stated) | 16.2 µM (inactive) | 23.4 µM (inactive) | 43.6 µM (inactive) | 33.1 µM | 36.5 µM (inactive) | 38.1 µM (inactive) | 30.5 µM (inactive) | 29.9 µM (inactive) | 17.9 µM (inactive) | 25.3 µM (inactive) | 29.5 µM (inactive) | 25.9 µM (inactive) | 29.6 µM (inactive) | 17.9 µM (inactive) | 46.1 µM (inactive) | 32.1 µM (inactive) | 39.9 µM (inactive) | 31.6 µM (inactive) | 51.6 µM (inactive) | 15.2 µM (inactive)
6 | C=C(Cl)/C(=C\Cl)CCC(Cl)C(C)C (configuration not stated) | > 100 µM (inactive) | > 100 µM (inactive) | > 100 µM (inactive) | – | – | > 100 µM (inactive) | 84.9 µM (inactive) | > 100 µM (inactive) | > 100 µM (inactive) | > 100 µM (inactive) | > 100 µM (inactive) | > 100 µM (inactive) | > 100 µM (inactive) | 56.2 µM (inactive) | > 100 µM (inactive) | > 100 µM (inactive) | > 100 µM (inactive) | 35.1 µM (inactive) | > 100 µM (inactive) | > 100 µM (inactive)
7 | CCCCC(CCCC)=NNC(=S)SC | 36.4 µM (inactive) | 30.3 µM (inactive) | 87.3 µM (inactive) | 34.2 µM | 19.2 µM (inactive) | 28.6 µM (inactive) | 17.3 µM (inactive) | 17.9 µM (inactive) | 17.4 µM (inactive) | 13.1 µM (inactive) | 22 µM (inactive) | 36.4 µM (inactive) | 29.6 µM (inactive) | 20.7 µM (inactive) | 33.7 µM (inactive) | – | > 100 µM (inactive) | 27.3 µM (inactive) | 24.3 µM (inactive) | 38.6 µM (inactive)
8 | CC1(C)CCC(=O)NC1CC(=O)CC1NC(=O)CCC1(C)C (configuration not stated) | > 100 µM (inactive) | > 100 µM (inactive) | > 100 µM (inactive) | > 100 µM | > 100 µM (inactive) | > 100 µM (inactive) | > 100 µM (inactive) | > 100 µM (inactive) | > 100 µM (inactive) | > 100 µM (inactive) | > 100 µM (inactive) | > 100 µM (inactive) | > 100 µM (inactive) | 32.7 µM (inactive) | > 100 µM (inactive) | > 100 µM (inactive) | > 100 µM (inactive) | > 100 µM (inactive) | > 100 µM (inactive) | > 100 µM (inactive)
9 | Cc1cc(=O)oc2c(CNC(C(=O)O)C(C)O)c(O)ccc12 (configuration not stated) | > 100 µM (inactive) | > 100 µM (inactive) | > 100 µM (inactive) | > 100 µM | > 100 µM (inactive) | > 100 µM (inactive) | > 100 µM (inactive) | > 100 µM (inactive) | > 100 µM (inactive) | 24.8 µM (inactive) | > 100 µM (inactive) | > 100 µM (inactive) | > 100 µM (inactive) | > 100 µM (inactive) | > 100 µM (inactive) | > 100 µM (inactive) | > 100 µM (inactive) | > 100 µM (inactive) | > 100 µM (inactive) | > 100 µM (inactive)
10 | Cn1c2ccccc2c2ccc3c(c21)C(=O)c1ccc2c4ccccc4n(C)c2c1C3=O | > 100 µM (inactive) | > 100 µM (inactive) | > 100 µM (inactive) | > 100 µM | > 100 µM (inactive) | 97.1 µM (inactive) | > 100 µM (inactive) | > 100 µM (inactive) | > 96.2 µM (inactive) | 87.5 µM (inactive) | > 100 µM (inactive) | > 100 µM (inactive) | > 100 µM (inactive) | > 100 µM (inactive) | > 100 µM (inactive) | > 100 µM (inactive) | > 100 µM (inactive) | > 100 µM (inactive) | > 100 µM (inactive) | > 100 µM (inactive)
11 | C[C@]1(O)O[C@@H]2OCC[C@@H]2C2=C1C(=O)c1ccccc1C2=O | 24.9 µM (inactive) | 16 µM (inactive) | 20 µM (inactive) | 19 µM | 15.3 µM (inactive) | 6.46 µM (inactive) | 11.3 µM (inactive) | 6.56 µM (inactive) | – | 15.9 µM (inactive) | 19.2 µM (inactive) | 17.4 µM (inactive) | 17.7 µM (inactive) | 12.3 µM (inactive) | 14.7 µM (inactive) | 14.8 µM (inactive) | 21.9 µM (inactive) | 11.4 µM (inactive) | 18 µM (inactive) | 12.8 µM (inactive)
12 | CC1(CNCc2ccccc2)CC(CCc2ccccc2)N(C(=O)c2ccc([N+](=O)[O-])cc2)C1Cc1ccc(O)cc1 (configuration not stated) | 6.5 µM (inactive) | 14 µM (inactive) | 14.4 µM (inactive) | 12.6 µM | 14.4 µM (inactive) | 5.24 µM (inactive) | 13.7 µM (inactive) | 14.2 µM (inactive) | 10.4 µM (inactive) | 19.2 µM (inactive) | 13.1 µM (inactive) | 13.6 µM (inactive) | 12 µM (inactive) | 11.3 µM (inactive) | 10.3 µM (inactive) | 15.6 µM (inactive) | 17.1 µM (inactive) | 12.6 µM (inactive) | 14.7 µM (inactive) | 2.04 µM (inactive)
13 | Oc1ccccc1/C=N/c1nc2cc3sc(/N=C/c4ccccc4O)nc3cc2s1 | 3.3 µM (inactive) | 4.61 µM (inactive) | 51.4 µM (inactive) | 19.2 µM | > 100 µM (inactive) | 12.5 µM (inactive) | 97.1 µM (inactive) | > 95.9 µM (inactive) | 38.9 µM (inactive) | > 100 µM (inactive) | > 100 µM (inactive) | > 100 µM (inactive) | 46.3 µM (inactive) | 4.44 µM (inactive) | 6.21 µM (inactive) | > 66.8 µM (inactive) | > 89.3 µM (inactive) | 34.2 µM (inactive) | > 100 µM (inactive) | > 100 µM (inactive)
14 | CC1(C)CCCCCC(C)(CCCCCCCCCCCO)C1=O (configuration not stated) | 17.1 µM (inactive) | 17.1 µM (inactive) | 17.6 µM (inactive) | 16.1 µM | 16.9 µM (inactive) | 16.1 µM (inactive) | – | 16.6 µM (inactive) | 15.3 µM (inactive) | 16 µM (inactive) | 15.5 µM (inactive) | 16.2 µM (inactive) | 12.8 µM (inactive) | 14.7 µM (inactive) | 16.6 µM (inactive) | 18.1 µM (inactive) | 17.6 µM (inactive) | 15.4 µM (inactive) | 17.2 µM (inactive) | 17.3 µM (inactive)
